Values quoted from earlier work, collected in US20030139466A1, “Methods for pretreating a subject with extracorporeal photopheresis” (priority 2001, published 2003).

Experiments:
[1] = tested on: monocytes; conditions: plasma containing 8-methoxypsoralen and exposure to ultraviolet-A light (photopheresis)
[2] = tested on: heart transplantation patients

In the case of COc1c2occc2cc2ccc(=O)oc12 [8-methoxypsoralen, 9-methoxy-7H-furo[3,2-g][1]-benzopyran-7-one], the cytokine release [1] is listed as “releases tumor necrosis factor-alpha, IL-1, IL-6, and possibly IL-8”.
For Cn1cnc([N+](=O)[O-])c1Sc1ncnc2nc[nH]c12 [azathioprine], the One-year actuarial survival [2] is listed as 60% and the “patients who experience no rejection” value ([2]; initial postoperative period) is listed as < 10%.
